Values joined by “and” are separate entries in the source; they are usually repeats but may differ in a detail not shown here. Equal values may be shown once. Read-outs that look alike come from different tables or passages of the source.
How the values were obtained:
[1] = system: herpes virus; conditions: cited from earlier work
[2] = system: herpes viruses; conditions: cited from earlier work
[3] = system: JC virus
[4] = system: TUBB4
[5] = system: POLR2A
[6] = system: HSV; conditions: Vero cells, 40 ng/ml
Description: Green Monkey Kidney (Vero) cells were treated with thimerosal (40 ng/ml) at various time points (12 hours, 4 hours, 1 hour, and 30 minutes) prior to and at the time of HSV infection. The number of plaques formed on day 6 post-infection was used to measure the effectiveness of thimerosal in preventing HSV infections.

[7] = system: HSV; conditions: ARPE-19 cells, media of PBMCs incubated with 40 ng/ml thimerosal, overlaid prior to HSV infection
Description: PBMCs were incubated with 40 ng/ml thimerosal for a minimum of 6 hours and then were overlaid in ARPE-19 cells at various time points (12 hours, 4 hours, 2 hours, 1 hour, 30 minutes and 10 minutes) prior to HSV infection of the ARPE-19 cells. ARPE-19 cells were not continuously treated with thimerosal. ARPE-19 cells receiving thimerosal treatment with PBMC media was used as a control. The number of plaques formed on day 6 post-infection was used to measure the effectiveness of thimerosal in preventing HSV infections. The number of plaques was normalized to the number of plaques in the control.

[8] = Text: A parent shared a drink with their child. Later that day the child asked their parent, who is an RN, to check the child's glands as they felt swollen and their throat hurt.
[9] = system: BK virus
[10] = system: SP1
[11] = system: TUBB4Q
[12] = system: HSV; conditions: ARPE-19 cells, 40 ng/ml, continuous treatment before HSV infection, depending on the treatment time point
[13] = system: LAT-SPNS1
[14] = system: TUBE1
[15] = system: TUBA4A
[16] = system: HSV; conditions: Vero cells, 40 ng/ml; remark: listed apart in the source
Description: Green Monkey Kidney (Vero) cells were treated with thimerosal (40 ng/ml) at various time points (30 minutes, 1 hour, 2 hours, 3, hours, 4 hours, 6 hours and 8 hours) after HSV infection. The number of plaques formed on day 6 post-infection was used to measure the effectiveness of thimerosal in preventing HSV infections. The number of plaques was normalized to the number of plaques in the control.

[17] = system: porcine oocytes; conditions: cited from earlier work
[18] = system: common cold
Description: A fifty-three old person with classic symptoms of the common cold used one drop of thimerosal (in a dose of 0.05 cc) every hour for one day.
The child of the person in Example 4 was treated with thimerosal for the common cold on several occasions. The child experienced symptoms for 5-7 days without treatment, which was reduced to 1-3 days when treated with thimerosal.

[19] = system: Vero cells; conditions: thimerosal doses tested (40 ng or 80 ng in 100 μl media)
Description: Vero cells were plated to a density of 70% confluency in 96-well dishes at a concentration of 75,000 cells/well). Cells were pretreated with either 40 ng or 80 ng thimerosal in 100 μl media for either 1 hour, 2 hours, 3 hours, 4 hours or 16 hours prior to infection.
After 1 hour at 37° C., virus was removed and cells were washed with unsupplemented MEM to remove unbound virus. The cells were then fed 100 μl/well complete media and stained for Tad (BK virus) or V-ag (JC virus) and scored via direct immunofluorescence.

[20] = system: Vero cells
[21] = system: BK virus; remark: listed apart in the source
[22] = system: laryngeal papillomas; conditions: child, one drop (0.05 cc) every 15 minutes for an hour, then hourly; six times daily on days 2 and 3
Description: A child suffering from laryngeal papillomas spreading to the soft palate was treated with one drop of thimerosal (in a dose of 0.05 cc) every 15 minutes for an hour and then one drop every hour until bedtime. Thimerosal was administered in one drop every six times daily on days 2 and 3 and then as needed on subsequent days.

[23] = system: adenovirus; conditions: person, one drop (0.05 cc) every 15 minutes for an hour, then every hour until bedtime
Description: A person with symptoms of an adenovirus infection took one drop of thimerosal (in a dose of 0.05 cc) every 15 minutes for an hour, and then one drop every hour until bedtime.

[24] = system: molluscum contagiosum, a poxvirus infection; conditions: several children, one drop (0.05 cc) every 15 minutes for an hour, then hourly; six times daily on days 2 and 3
[25] = treatment at the time of infection

## O=C(O)c1ccccc1SSc1ccccc1C(=O)O [dithiodibenzoic acid]
[1]
  antiviral activity in vivo: do not provide antiviral activity in vivo
[2]
  anti-herpes virus activity in vitro: indicated anti-herpes virus activity in vitro

## C[CH2][Hg][S]c1ccccc1C(=O)[O-].[Na+] [thimerosal]
[3]
  infectivity of the JC virus: did not appear to inhibit infectivity
[4]
  Fold changes (vs. Control): 2.13 and 2.12
[5]
  Fold changes (vs. Control): −1.84
[6]; prophylactic therapy (12 hours, 4 hours, 1 hour, 30 minutes prior to HSV infection)
  number of plaques formed on day 6 post-infection: significant decrease in the number of plaques
[6]; treatment 1 hour prior to HSV infection
  number of plaques formed on day 6 post-infection: highest reduction in the plaque number
[6]; [25]
  number of plaques formed on day 6 post-infection: did not reduce the number of plaques
[7]
  antiviral activity (plaques day 6) versus thimerosal alone: stronger antiviral activity
[8]; child, one drop (0.05 cc) at a two hour interval
  symptoms (swollen glands, sore throat): symptoms were resolved
[8]; parent, dosed as a prophylactic measure
  development of symptoms after prophylactic dosing: did not develop any symptoms
[9]
  infectivity of BK virus: reduction of the infectivity of the virus
  reduction of infectivity of BK virus: approximately 30%
[10]
  Fold changes (vs. Control): 1.95 and 2.04 and 2
[11]
  Fold changes (vs. Control): 1.85
[12]
  inhibition of the activity of HSV (plaques, percent of control): up to 55%
[13]
  Fold changes (vs. Control): 1.87
[14]
  Fold changes (vs. Control): 1.95 and 2.03 and 1.98
[15]
  Fold changes (vs. Control): 1.96 and 2 and 1.95
[16]; all other post-infection time points (30 minutes, 4, 6, 8 hours)
  number of plaques formed on day 6 post-infection: did not significantly reduce the number of plaques
[16]; post-infection treatment from 1-3 hours
  number of plaques formed on day 6 post-infection: significant reduction in the plaque numbers
[16]; [25]
  number of plaques formed on day 6 post-infection: did not change the number of plaques
[17]; 10 minute exposure to 200 μM thimerosal followed by 30 minute incubation in 8 mM DTT
  oocyte activation: induced complete activation of porcine oocytes
[17]; thimerosal treatment alone
  oocyte cell-cycle effect: arrests oocytes in metaphase
[18]; child, several occasions, 5-7 days without treatment
  duration of common cold symptoms when treated: 1 to 3 days
[18]; fifty-three old male, one drop (0.05 cc) every hour for one day
  symptoms of the common cold: resolved by the next day
[2]
  anti-herpes virus activity in vitro: demonstrate activity against herpes viruses
[2]; thimerosal mixed in a test tube with herpes virus, subsequently introduced into susceptible cells
  viral propagation: viral propagation is not inhibited
[19]
  toxicity to cells: did not appear to be toxic
[20]
  toxicity to cells: appeared to be toxic
[21]
  infectivity of BK virus: reduction of the infectivity of the virus
[22]
  resolution of the symptoms of laryngeal papillomas: complete in five days
[23]
  symptoms of an adenovirus infection: significantly reduced and were gone the next day
[24]
  treatment outcome of molluscum contagiosum: successfully treated

## O=C(O)c1ccccc1S [thiosalicylic acid]
[1]
  antiviral activity in vivo: do not provide antiviral activity in vivo

— US9682058B2, “Method of treating viral infections by administration of ethyl mercury or thiol derivative thereof” (BEECH TREE LABS, INC., priority 2010, dated 2017)
